Some test systems named below: MALME-3M melanoma; MCF7 breast; SK-MEL-28 melanoma; 786-0 renal; PC-3 prostate; LOX IMVI melanoma; HL-60(TB) leukemia; MOLT-4 leukemia.
Common to all, as to experiment: NCI anticancer screen, dose series, 48 h

The structures appear in SMILES notation.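 Where inhibition never reached the appropriate level, the endpoint shown equals the highest concentration tested. Otherwise, values were interpolated linearly from a five-concentration, 48-hour dose response in 96-well plates. The concentration for 50% growth inhibition is given as GI50. TGI is the concentration that stops growth completely.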 Bounds are passed on as bounds.

These results are taken from PubChem BioAssay (NCI).

On to `COc1cc(NC(N)=NCCC(C)(C)c2ccc(C(F)(F)F)cc2)ncc1C#N`, for which the GI50 was 1.82 µM in the experiment on MALME-3M melanoma; 1.45 µM in the experiment on MCF7 breast; 2.01 µM with SK-MEL-28 melanoma; 1.71 µM with 786-0 renal; 1.55 µM with PC-3 prostate; 1.58 µM with LOX IMVI melanoma. Also, the results for the GI50 in the experiment on HL-60(TB) leukemia and with MOLT-4 leukemia were 0.278 µM and 1.84 µM, respectively. The TGI in the experiment with MALME-3M melanoma was found to be 3.47 µM; in the experiment on MCF7 breast it was 2.98 µM; with SK-MEL-28 melanoma, 3.52 µM; with 786-0 renal it was 3.14 µM; with PC-3 prostate it was 3.17 µM; in the experiment with LOX IMVI melanoma it was 2.92 µM. Moreover, the TGI came to 0.868 µM in the experiment on HL-60(TB) leukemia and 5.25 µM in the experiment on MOLT-4 leukemia.
For `O=C(Nc1ccc(Br)cc1F)c1cc(Br)ccc1O`, the GI50 is 0.32 µM in the experiment on MALME-3M melanoma; 0.906 µM in the experiment on MCF7 breast; 0.4 µM in the experiment on SK-MEL-28 melanoma; 1.66 µM in the experiment on 786-0 renal; 2.06 µM with PC-3 prostate; 0.668 µM in the experiment with LOX IMVI melanoma. Besides, the GI50 in the experiment on HL-60(TB) leukemia was 0.59 µM; in the experiment on MOLT-4 leukemia it was 1.45 µM. The TGI was 1.82 µM in the experiment with MALME-3M melanoma; 8.96 µM in the experiment with MCF7 breast; 2.13 µM in the experiment on SK-MEL-28 melanoma; 6.26 µM in the experiment on 786-0 renal; 7.69 µM in the experiment with PC-3 prostate; 4.47 µM in the experiment on LOX IMVI melanoma. Further, the values for the TGI in the experiment with HL-60(TB) leukemia and in the experiment on MOLT-4 leukemia were 3.59 µM and 4.49 µM, respectively.
On to `N=c1ccn2c(n1)O[C@@H]1[C@@H](O)[C@H](CO)O[C@@H]12`, for which the GI50 with MALME-3M melanoma was 2.57 µM; with MCF7 breast, 0.234 µM; with SK-MEL-28 melanoma it was 4.89 µM; in the experiment with 786-0 renal, 2.46 µM; in the experiment on PC-3 prostate, 7.57 µM; in the experiment with LOX IMVI melanoma it was 6.97 µM. The GI50 with HL-60(TB) leukemia was 8.41 µM; in the experiment with MOLT-4 leukemia, 0.161 µM. Also, the TGI is more than 100 µM in the experiment with MALME-3M melanoma; more than 100 µM in the experiment with MCF7 breast; more than 100 µM with SK-MEL-28 melanoma; 50.3 µM with 786-0 renal; more than 100 µM with PC-3 prostate; more than 100 µM in the experiment on LOX IMVI melanoma. Also, the TGI with HL-60(TB) leukemia and with MOLT-4 leukemia was more than 100 µM each time.
As to `O=C1c2cccnc2C(=O)c2c1c(C(=O)OCCN1CCOCC1)c1ccccn21`, the GI50 in the experiment on MALME-3M melanoma is 0.0353 µM; in the experiment on MCF7 breast, less than 0.01 µM; in the experiment on SK-MEL-28 melanoma it was 0.0458 µM; in the experiment on 786-0 renal, 0.0108 µM; in the experiment with PC-3 prostate, 0.0816 µM; in the experiment with LOX IMVI melanoma, less than 0.01 µM. In addition, the GI50 with HL-60(TB) leukemia is 0.0789 µM; in the experiment with MOLT-4 leukemia, 0.0938 µM. Also, the TGI with MALME-3M melanoma was 0.985 µM; in the experiment on MCF7 breast it was 0.041 µM; with SK-MEL-28 melanoma it was 2.12 µM; in the experiment with 786-0 renal it was 2.22 µM; in the experiment with PC-3 prostate, 17.1 µM; in the experiment with LOX IMVI melanoma it was 0.384 µM. Also, the TGI in the experiment on HL-60(TB) leukemia turned out to be 3.21 µM; in the experiment with MOLT-4 leukemia, 3.22 µM.
Regarding `O=C(CCl)Nc1ccc2c(c1)C(=O)c1ccc(NC(=O)CCl)cc1C2=O`, the GI50 in the experiment on MALME-3M melanoma was 0.219 µM; in the experiment on MCF7 breast, 0.194 µM; in the experiment with SK-MEL-28 melanoma it was 0.321 µM; in the experiment on 786-0 renal it was 0.193 µM; in the experiment with PC-3 prostate it was 0.876 µM; in the experiment on LOX IMVI melanoma it was 0.0935 µM. In addition, the GI50 with HL-60(TB) leukemia was 0.454 µM; in the experiment with MOLT-4 leukemia, 0.241 µM. Also, the TGI in the experiment with MALME-3M melanoma turned out to be 0.888 µM; with MCF7 breast, 0.79 µM; with SK-MEL-28 melanoma, 1.33 µM; with 786-0 renal it was 0.537 µM; in the experiment on PC-3 prostate, 2.5 µM; in the experiment with LOX IMVI melanoma, 0.229 µM. Moreover, the TGI with HL-60(TB) leukemia stood at 3.08 µM; in the experiment with MOLT-4 leukemia it was 2.13 µM.
In the case of `CN1CCCCC1CCN1c2ccccc2Sc2ccc(S(C)=O)cc21` (stereo not drawn), the TGI in the experiment on MALME-3M melanoma, in the experiment on MCF7 breast, with SK-MEL-28 melanoma, in the experiment on 786-0 renal, in the experiment on PC-3 prostate and in the experiment with LOX IMVI melanoma was more than 100 µM in each case. Also, the TGI in the experiment on HL-60(TB) leukemia and with MOLT-4 leukemia was more than 100 µM throughout.
Consider `Cc1nc2cc(N)c(Cl)cc2[nH]1`, for which the TGI in the experiment on MALME-3M melanoma, in the experiment on MCF7 breast, with SK-MEL-28 melanoma, in the experiment on 786-0 renal, in the experiment with PC-3 prostate and with LOX IMVI melanoma was more than 100 µM in each case. Also, the TGI in the experiment on HL-60(TB) leukemia and with MOLT-4 leukemia was more than 100 µM in each case.
As for `CCN1CCN(C(=O)[C@]23CCC(C)(C)C[C@@H]2C2=CC[C@@H]4[C@@]5(C)C/C(=C/c6cccnc6)C(=O)C(C)(C)[C@@H]5CC[C@@]4(C)[C@]2(C)CC3)CC1`, the GI50 with MALME-3M melanoma was 1.53 µM; in the experiment with MCF7 breast, 1.4 µM; in the experiment on SK-MEL-28 melanoma it was 1.48 µM; with 786-0 renal, 1.6 µM; in the experiment on PC-3 prostate it was 1 µM; with LOX IMVI melanoma it was 1.36 µM. Moreover, the GI50 with HL-60(TB) leukemia is 0.443 µM; in the experiment with MOLT-4 leukemia, 1.03 µM. Further, the TGI in the experiment on MALME-3M melanoma is 2.91 µM; in the experiment with MCF7 breast it was 3.07 µM; with SK-MEL-28 melanoma it was 2.83 µM; in the experiment on 786-0 renal, 3.08 µM; with PC-3 prostate, 2.79 µM; in the experiment on LOX IMVI melanoma it was 2.73 µM. Further, the TGI stood at 3.34 µM with HL-60(TB) leukemia and 5.2 µM in the experiment with MOLT-4 leukemia.
As to `Cn1c(=S)sc2nc3ccccc3n2c1=S`, the TGI in the experiment with MALME-3M melanoma was determined as 31.2 µM; in the experiment with MCF7 breast, 5.49 µM; in the experiment on SK-MEL-28 melanoma, 25.1 µM; with 786-0 renal it was 33.6 µM; in the experiment with PC-3 prostate, 92.3 µM; in the experiment with LOX IMVI melanoma, 26.2 µM. For the same compound, the TGI in the experiment on HL-60(TB) leukemia worked out at 5.07 µM; in the experiment on MOLT-4 leukemia it was 38.7 µM.
As to `O=C(O)/C=C\C(=O)Nc1ccc2c(c1)C(=O)c1cc(F)ccc1-2`, the TGI in the experiment on MALME-3M melanoma, in the experiment on MCF7 breast, in the experiment with SK-MEL-28 melanoma, with 786-0 renal, with PC-3 prostate and in the experiment with LOX IMVI melanoma was more than 100 µM each time. The TGI in the experiment on HL-60(TB) leukemia and in the experiment with MOLT-4 leukemia was more than 100 µM throughout.
